# Laboratory results: paper PMC2636818, “Atomic structures and functional implications of the archaeal RecQ-like helicase Hjm” (BMC Structural Biology, 2009)
# T1: PfuHjm (Pyrococcus furiosus, UniProt O73946)
# T1 construct: gene hel308; full-length 720 residues, recombinant from pET21d (pHJM100) in E. coli BL21 codonPlus (DE3)-RIL; C-terminal ~60 (Form 1) or 20 (Form 2) residues disordered; one molecule per asymmetric unit in Form 1
# T1 sequence (O73946 1-720): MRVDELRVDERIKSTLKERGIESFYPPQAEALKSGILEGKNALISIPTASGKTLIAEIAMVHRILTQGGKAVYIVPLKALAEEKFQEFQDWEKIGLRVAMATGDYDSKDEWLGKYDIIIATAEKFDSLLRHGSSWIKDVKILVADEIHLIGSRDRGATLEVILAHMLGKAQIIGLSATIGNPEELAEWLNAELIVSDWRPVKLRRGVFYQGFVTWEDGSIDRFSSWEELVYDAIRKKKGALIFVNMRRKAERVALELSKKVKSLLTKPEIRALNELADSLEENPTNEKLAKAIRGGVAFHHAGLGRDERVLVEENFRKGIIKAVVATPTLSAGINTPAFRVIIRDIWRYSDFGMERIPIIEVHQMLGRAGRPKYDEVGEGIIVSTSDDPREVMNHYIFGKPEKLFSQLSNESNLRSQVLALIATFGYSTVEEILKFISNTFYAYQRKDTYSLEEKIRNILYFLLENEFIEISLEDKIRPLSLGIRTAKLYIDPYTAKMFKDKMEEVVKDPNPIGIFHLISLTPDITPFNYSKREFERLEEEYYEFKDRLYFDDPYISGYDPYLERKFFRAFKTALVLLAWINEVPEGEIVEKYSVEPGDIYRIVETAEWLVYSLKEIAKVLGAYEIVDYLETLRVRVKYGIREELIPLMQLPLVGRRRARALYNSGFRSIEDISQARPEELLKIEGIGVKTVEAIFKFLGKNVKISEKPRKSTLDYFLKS
# T2: PfuHjm (RecQ-like helicase Hjm, Hel308 family) (Pyrococcus furiosus, UniProt O73946 1-720)
# T2 sequence: T1 sequence (O73946 1-720)
# Key:
# [1] = target: T1, PfuHjm; experiment: X-ray crystal structure, soaked crystal; format: binding; details: Form 1 crystal soaked with 1 mM ATPgammaS, ADP modelled as hydrolysed product; 100 mM citrate pH 5.0, 1.6 M ammonium sulfate; 2.4 A; nucleotide site
# [2] = target: T2, PfuHjm (RecQ-like helicase Hjm, Hel308 …); experiment: negative-stain single-particle EM (23 A) of complex purified by gel filtration; no nucleotide added; 50 mM Tris-HCl pH 8.0, 0.15 M NaCl, 0.5 mM EDTA, 1 mM DTT, 10% glycerol, room temperature, 20 min, 1:1 protein/DNA; details: protein: recombinant; hairpin with 3' overhang
molecule,measurement,setting,value
Nc1ncnc2c1ncn2[C@@H]1O[C@H](COP(=O)(O)OP(=O)(O)O)[C@@H](O)[C@H]1O [ADP],"X-ray crystal structure, soaked crystal",[1],"electron density corresponding to the hydrolyzed product ADP, rather than the soaked ATPγS"
AGCACTGCTATTCCCTAGCAGTGCTAGATGCACGAC (structured_DNA) [3' overhang hairpin DNA],binding result,[2],binds
